What is called IC50 is the point on the concentration scale where inhibition reaches its midpoint.

Drawing on US20210070748A1, “INHIBITORS OF BRUTONS TYROSINE KINASE” (Pharmacyclics LLC, priority 2015, published 2021), this text covers IC50 for 16 molecules.

Each structure is given as a SMILES string.

Common to all, as to assay type: biochemical
One assay addresses LCK (Homo sapiens, UniProt P06239). The assay can be described thus: Inhibition of a panel of kinases, in vitro HotSpot kinase assay: LCK. As to conditions: D-compounds panel data; 1 μM ATP; read-out: IC50 LCK.
The next assay deals with T1, BTK-WT (Homo sapiens, UniProt Q06187).
T1 construct: purified from insect cells as a full-length construct containing an N-terminal 6X-His tag; His6 (N); made in house; host or cells: insect cells (baculovirus Sf21 in Method B)
The assay can be described thus: Btk in vitro inhibitory activity (one of Method A TR-FRET, Method B electrophoretic mobility shift, Method C radiometric filter binding). The following applies: D-compounds panel data; read-out: IC50 BTK-WT. A general note: A gel shift assay detects complexes by their altered migration in electrophoresis.

For the next assay, the target named is EGFR (Homo sapiens, UniProt P00533). Description: Inhibition of a panel of kinases, in vitro HotSpot kinase assay: EGFR. The following applies: D-compounds panel data; 1 μM ATP. As for the experimental part: The degree of inhibition of a panel of kinases is determined using the in vitro HotSpot kinase assay (purified enzymes, ^33P-ATP, an appropriate substrate and 1 μM ATP).

For a further assay, the target named is T2, JAK3 (Homo sapiens, UniProt P52333).
T2 sequence (P52333 1-1124): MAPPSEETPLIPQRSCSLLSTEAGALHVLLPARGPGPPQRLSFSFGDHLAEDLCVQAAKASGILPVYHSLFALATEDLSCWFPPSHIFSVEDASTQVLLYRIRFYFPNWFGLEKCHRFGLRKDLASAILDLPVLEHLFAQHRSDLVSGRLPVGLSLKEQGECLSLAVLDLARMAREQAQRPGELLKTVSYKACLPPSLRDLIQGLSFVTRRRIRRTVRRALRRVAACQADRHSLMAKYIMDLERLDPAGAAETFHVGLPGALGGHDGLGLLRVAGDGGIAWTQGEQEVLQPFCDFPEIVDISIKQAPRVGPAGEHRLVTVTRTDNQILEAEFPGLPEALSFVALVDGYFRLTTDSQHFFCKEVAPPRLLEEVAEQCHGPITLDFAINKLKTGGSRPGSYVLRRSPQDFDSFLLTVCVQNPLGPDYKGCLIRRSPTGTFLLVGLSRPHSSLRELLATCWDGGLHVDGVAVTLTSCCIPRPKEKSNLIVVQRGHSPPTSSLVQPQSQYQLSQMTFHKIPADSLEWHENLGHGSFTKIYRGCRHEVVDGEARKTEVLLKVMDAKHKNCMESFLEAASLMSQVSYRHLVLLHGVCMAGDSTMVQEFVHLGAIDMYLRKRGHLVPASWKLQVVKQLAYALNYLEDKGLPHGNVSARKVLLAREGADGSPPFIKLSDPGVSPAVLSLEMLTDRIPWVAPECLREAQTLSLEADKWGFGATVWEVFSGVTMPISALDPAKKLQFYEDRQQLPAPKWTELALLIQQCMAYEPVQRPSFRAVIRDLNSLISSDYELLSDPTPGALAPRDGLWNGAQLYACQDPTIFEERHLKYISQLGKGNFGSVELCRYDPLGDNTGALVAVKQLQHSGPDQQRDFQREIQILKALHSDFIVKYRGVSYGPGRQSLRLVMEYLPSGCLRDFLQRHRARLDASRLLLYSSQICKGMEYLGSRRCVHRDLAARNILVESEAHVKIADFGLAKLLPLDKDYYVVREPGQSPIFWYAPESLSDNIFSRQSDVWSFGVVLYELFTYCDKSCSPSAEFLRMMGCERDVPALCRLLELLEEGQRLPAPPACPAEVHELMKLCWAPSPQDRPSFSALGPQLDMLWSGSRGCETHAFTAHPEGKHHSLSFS
The assay can be described thus: Inhibition of a panel of kinases, in vitro HotSpot kinase assay: JAK3. The following applies: D-compounds panel data; 1 μM ATP; read-out: IC50 JAK3.

T1 sequence (Q06187 whole entry): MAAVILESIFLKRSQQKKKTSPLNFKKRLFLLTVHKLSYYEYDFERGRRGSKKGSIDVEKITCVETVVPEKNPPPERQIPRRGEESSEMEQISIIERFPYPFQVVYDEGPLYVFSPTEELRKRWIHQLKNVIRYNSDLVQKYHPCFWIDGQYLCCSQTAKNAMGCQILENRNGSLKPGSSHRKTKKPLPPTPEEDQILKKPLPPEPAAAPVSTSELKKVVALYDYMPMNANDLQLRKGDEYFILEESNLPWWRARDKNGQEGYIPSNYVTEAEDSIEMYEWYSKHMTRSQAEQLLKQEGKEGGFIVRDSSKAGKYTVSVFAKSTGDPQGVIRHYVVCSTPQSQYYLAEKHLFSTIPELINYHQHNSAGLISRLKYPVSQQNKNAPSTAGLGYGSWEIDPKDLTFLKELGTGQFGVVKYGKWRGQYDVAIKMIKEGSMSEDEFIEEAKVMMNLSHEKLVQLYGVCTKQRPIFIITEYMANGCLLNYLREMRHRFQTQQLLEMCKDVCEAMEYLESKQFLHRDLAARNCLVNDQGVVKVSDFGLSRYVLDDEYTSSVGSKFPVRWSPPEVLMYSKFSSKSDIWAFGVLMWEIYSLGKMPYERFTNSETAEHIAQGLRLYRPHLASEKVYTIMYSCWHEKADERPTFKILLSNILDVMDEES
EGFR, sequence (P00533 25-1210): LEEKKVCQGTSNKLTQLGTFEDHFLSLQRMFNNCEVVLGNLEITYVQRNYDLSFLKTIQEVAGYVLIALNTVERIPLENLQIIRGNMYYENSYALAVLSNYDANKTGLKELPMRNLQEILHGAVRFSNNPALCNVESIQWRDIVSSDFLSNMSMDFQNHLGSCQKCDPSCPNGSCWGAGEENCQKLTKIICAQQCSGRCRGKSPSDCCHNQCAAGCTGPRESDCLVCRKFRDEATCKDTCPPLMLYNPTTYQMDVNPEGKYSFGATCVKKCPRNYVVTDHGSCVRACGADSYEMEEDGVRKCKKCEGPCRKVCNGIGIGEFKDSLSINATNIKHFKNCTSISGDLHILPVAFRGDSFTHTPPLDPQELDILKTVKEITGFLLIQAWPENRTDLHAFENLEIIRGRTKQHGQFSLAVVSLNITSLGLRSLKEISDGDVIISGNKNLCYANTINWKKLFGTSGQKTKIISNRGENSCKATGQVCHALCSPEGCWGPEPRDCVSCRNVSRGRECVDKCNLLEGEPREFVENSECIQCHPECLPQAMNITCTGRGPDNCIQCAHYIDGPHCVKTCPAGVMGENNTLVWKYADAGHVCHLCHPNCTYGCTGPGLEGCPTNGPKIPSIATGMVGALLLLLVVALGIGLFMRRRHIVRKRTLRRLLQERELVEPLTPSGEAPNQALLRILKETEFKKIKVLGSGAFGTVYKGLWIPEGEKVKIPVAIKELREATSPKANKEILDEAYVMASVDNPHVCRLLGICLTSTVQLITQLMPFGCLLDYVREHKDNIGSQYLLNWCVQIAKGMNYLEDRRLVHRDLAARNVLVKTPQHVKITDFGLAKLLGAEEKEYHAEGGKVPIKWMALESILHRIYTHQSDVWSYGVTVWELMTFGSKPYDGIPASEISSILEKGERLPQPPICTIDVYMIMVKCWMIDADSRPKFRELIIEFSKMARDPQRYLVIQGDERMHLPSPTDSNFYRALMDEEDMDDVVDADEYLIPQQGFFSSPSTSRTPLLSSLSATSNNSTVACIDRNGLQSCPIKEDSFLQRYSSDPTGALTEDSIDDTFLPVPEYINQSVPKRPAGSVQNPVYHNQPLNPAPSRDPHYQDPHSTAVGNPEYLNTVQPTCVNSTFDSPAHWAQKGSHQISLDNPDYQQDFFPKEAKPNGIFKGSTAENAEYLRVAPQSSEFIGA
LCK, sequence (P06239 whole entry): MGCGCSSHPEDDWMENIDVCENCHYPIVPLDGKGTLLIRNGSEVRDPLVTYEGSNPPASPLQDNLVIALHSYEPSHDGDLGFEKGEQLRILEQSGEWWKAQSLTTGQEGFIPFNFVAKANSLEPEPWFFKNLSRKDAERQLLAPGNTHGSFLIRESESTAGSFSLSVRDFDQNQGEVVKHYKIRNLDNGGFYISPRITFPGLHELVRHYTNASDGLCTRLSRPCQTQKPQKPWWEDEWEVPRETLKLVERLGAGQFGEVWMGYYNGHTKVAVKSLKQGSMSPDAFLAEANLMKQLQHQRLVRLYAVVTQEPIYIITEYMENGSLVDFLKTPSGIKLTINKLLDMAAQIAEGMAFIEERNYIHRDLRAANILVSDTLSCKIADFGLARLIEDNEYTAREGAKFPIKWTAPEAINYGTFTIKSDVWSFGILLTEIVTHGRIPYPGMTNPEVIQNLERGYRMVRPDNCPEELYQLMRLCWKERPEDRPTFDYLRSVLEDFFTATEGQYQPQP

Take `C[C@@H]1[C@H](NC(=O)C23CC(C2)C3)CCCN1c1cnc(C(N)=O)c(Nc2cnn(C)c2)n1` [Example D-90, 5-[(2R,3R)-3-{bicyclo[1.1.1]pentane-1-amido}-2-methylpiperidin-1-yl]-3-[(1-methyl-1H-pyrazol-4-yl)amino]pyrazine-2-carboxamide]: the IC50 was 100 to 1000 nM at LCK, 10 to 100 nM on BTK-WT, 1000 to 10000 nM at EGFR and 1000 to 10000 nM on JAK3.

In the case of `Cc1cc(Nc2nc(N3C[C@@H](NC(=O)N(C)C)CC[C@H]3C)cnc2C(N)=O)sn1` [Example D-75, 5-[(2R,5S)-5-[(dimethylcarbamoyl)amino]-2-methylpiperidin-1-yl]-3-[(3-methyl-1,2-thiazol-5-yl)amino]pyrazine-2-carboxamide], the half-maximal inhibitory concentration (IC50) lay in the range of 100 to 1000 nM at LCK, 10 to 100 nM on BTK-WT, 100 to 1000 nM against EGFR and 100 to 1000 nM at JAK3.

`Cn1cc(Nc2nc(N3CCC[C@@H](NC(=O)c4ccc(C(C)(C)O)cc4)C3)nnc2C(N)=O)cn1` [Example D-39, 3-[(3R)-3-[4-(2-hydroxypropan-2-yl)benzamido]piperidin-1-yl]-5-[(1-methyl-1H-pyrazol-4-yl)amino]-1,2,4-triazine-6-carboxamide]: the half-inhibitory concentration (IC50) on LCK is 100 to 1000 nM; at BTK-WT, not above 10 nM; against EGFR, more than 10000 nM; at JAK3, 100 to 1000 nM.

Regarding `C[C@@H]1[C@H](NC(=O)c2ccc(C3CC3)cc2)CCCN1c1cnc(C(N)=O)c(Nc2ccc(C3CCOCC3)cc2)n1` [Example D-317, 5-[(2R,3R)-3-(4-cyclopropylbenzamido)-2-methylpiperidin-1-yl]-3-{[4-(oxan-4-yl)phenyl]amino}pyrazine-2-carboxamide], the IC50 on LCK was more than 10000 nM; on BTK-WT, not above 10 nM; at EGFR, more than 10000 nM; on JAK3, 1000 to 10000 nM.

Take `C[C@@H]1[C@H](NC(=O)c2ccc(C3CC3)cc2)CCCN1c1cnc(C(N)=O)c(Nc2ccc(N3CCN(C)CC3)c(C(F)(F)F)c2)n1` [Example D-92, 5-[(2R,3R)-3-(4-cyclopropylbenzamido)-2-methylpiperidin-1-yl]-3-{[4-(4-methylpiperazin-1-yl)-3-(trifluoromethyl)phenyl]amino}pyrazine-2-carboxamide]: the 50% inhibitory concentration (IC50) at LCK is 100 to 1000 nM; on BTK-WT, not above 10 nM; on EGFR it was 1000 to 10000 nM; on JAK3 it was more than 10000 nM.

As to `C[C@@H]1[C@H](NC(=O)c2ccc(C3CC3)cc2)CCCN1c1cnc(C(N)=O)c(Nc2ccc(OC(F)(F)F)cc2)n1` [Example D-42, 5-[(2R,3R)-3-(4-cyclopropylbenzamido)-2-methylpiperidin-1-yl]-3-{[4-(trifluoromethoxy)phenyl]amino}pyrazine-2-carboxamide], the IC50 on LCK is more than 10000 nM; at BTK-WT, 100 to 1000 nM; against EGFR, more than 10000 nM; at JAK3, more than 10000 nM.

In the case of `C[C@@H]1[C@H](N2Cc3cc(Br)ccc3C2=O)CCCN1c1cnc(C(N)=O)c(Nc2cnn(C)c2)n1` [Example D-27, 5-[(2R,3R)-3-(5-bromo-1-oxo-2,3-dihydro-1H-isoindol-2-yl)-2-methylpiperidin-1-yl]-3-[(1-methyl-1H-pyrazol-4-yl)amino]pyrazine-2-carboxamide], the IC50 was 100 to 1000 nM at LCK, not above 10 nM on BTK-WT, 100 to 1000 nM on EGFR and 100 to 1000 nM at JAK3.

With `C[C@@H]1[C@H](NC(=O)c2ccc(C(C)(C)CO)cc2)CCCN1c1cnc(C(N)=O)c(Nc2cnn(C)c2)n1` [Example D-94, 5-[(2R,3R)-3-[4-(1-hydroxy-2-methylpropan-2-yl)benzamido]-2-methylpiperidin-1-yl]-3-[(1-methyl-1H-pyrazol-4-yl)amino]pyrazine-2-carboxamide], the IC50 was 100 to 1000 nM on LCK, not above 10 nM at BTK-WT, 1000 to 10000 nM against EGFR and 100 to 1000 nM on JAK3.

As to `CN(C)C(=O)N[C@@H]1CCCN(c2cnc(C(N)=O)c(Nc3ccc(C4(C)CCN(C5CCCC5)CC4)cc3)n2)[C@H]1CO` [Example D-60, 3-{[4-(1-cyclopentyl-4-methylpiperidin-4-yl)phenyl]amino}-5-[(2R,3R)-3-[(dimethylcarbamoyl)amino]-2-(hydroxymethyl)piperidin-1-yl]pyrazine-2-carboxamide], the IC50 at LCK lay within 1000 to 10000 nM; on BTK-WT, 100 to 1000 nM; against EGFR, 1000 to 10000 nM; on JAK3, 1000 to 10000 nM.

In the case of `Cn1cc(Nc2nc(N3CCC[C@@H]4[C@H]3CCN4C(=O)c3ccccc3)cnc2C(N)=O)cn1` (racemic) [Example D-54, (racemic)-cis-5-{1-benzoyl-octahydro-1H-pyrrolo[3,2-b]pyridin-4-yl}-3-[(1-methyl-1H-pyrazol-4-yl)amino]pyrazine-2-carboxamide], the IC50 is 100 to 1000 nM at LCK, 10 to 100 nM at BTK-WT, more than 10000 nM against EGFR and 1000 to 10000 nM on JAK3.

Turning to `Cc1cc(Nc2nc(N3C[C@H](NC(=O)N(C)C)CC[C@@H]3C)cnc2C(N)=O)sn1` [Example D-74, 5-[(2S,5R)-5-[(dimethylcarbamoyl)amino]-2-methylpiperidin-1-yl]-3-[(3-methyl-1,2-thiazol-5-yl)amino]pyrazine-2-carboxamide], the IC50 at LCK, on BTK-WT, on EGFR and on JAK3 was 100 to 1000 nM throughout.

Consider `C[C@@H]1[C@H](NC(=O)c2ccc(C3CC3)cc2F)CCCN1c1cnc(C(N)=O)c(Nc2ccc(C3(C)CCN(C4CCCC4)CC3)cc2)n1` [Example D-66, 3-{[4-(1-cyclopentyl-4-methylpiperidin-4-yl)phenyl]amino}-5-[(2R,3R)-3-(4-cyclopropyl-2-fluorobenzamido)-2-methylpiperidin-1-yl]pyrazine-2-carboxamide], for which the IC50 at LCK is less than 10 nM; at BTK-WT, not above 10 nM; on EGFR, 10 to 100 nM; at JAK3, 100 to 1000 nM.

As to `C[C@@H]1[C@H](NC(=O)c2ccc(C(C)(C)O)nc2)CCCN1c1cnc(C(N)=O)c(Nc2cnn(C)c2)n1` [Example D-40, 5-[(2R,3R)-3-[6-(2-hydroxypropan-2-yl)pyridine-3-amido]-2-methylpiperidin-1-yl]-3-[(1-methyl-1H-pyrazol-4-yl)amino]pyrazine-2-carboxamide], the IC50 was 10 to 100 nM at LCK, not above 10 nM at BTK-WT, 100 to 1000 nM at EGFR and 100 to 1000 nM on JAK3.

For the molecule `CN1CCN(C(=O)c2ccc(Nc3nc(N[C@H]4CC[C@H](NC(=O)N(C)C)CC4)cnc3C(N)=O)cc2)CC1` [Example D-69, 3-{[4-(4-methylpiperazine-1-carbonyl)phenyl]amino}-5-{[(1 r,4r)-4-[(dimethylcarbamoyl)amino]cyclohexyl]amino}pyrazine-2-carboxamide], the half-inhibitory concentration (IC50) lay within 10 to 100 nM at LCK, 10 to 100 nM at BTK-WT, 100 to 1000 nM against EGFR and 100 to 1000 nM at JAK3.

In the case of `C[C@@H]1[C@H](NC(=O)c2cnc(C3CC3)nc2)CCCN1c1cnc(C(N)=O)c(Nc2cnn(C)c2)n1` [Example D-86, 5-[(2R,3R)-3-(2-cyclopropylpyrimidine-5-amido)-2-methylpiperidin-1-yl]-3-[(1-methyl-1H-pyrazol-4-yl)amino]pyrazine-2-carboxamide], the IC50 on LCK is 10 to 100 nM; on BTK-WT, not above 10 nM; against EGFR, 1000 to 10000 nM; on JAK3 it was 100 to 1000 nM.

Consider `Cn1cc(Nc2nc(N3CCC[C@@H]4[C@H]3CCCN4C(=O)c3ccc(C4CC4)cc3)cnc2C(N)=O)cn1` [Example D-46, 5-I[(4aR,8aR)-5-(4-cyclopropylbenzoyl)-decahydro-1,5-naphthyridin-1-yl]-3-[(1-methyl-1H-pyrazol-4-yl)amino]pyrazine-2-carboxamide], for which the IC50 at LCK was 100 to 1000 nM; at BTK-WT it was 10 to 100 nM; against EGFR it was 100 to 1000 nM; on JAK3 it was 1000 to 10000 nM.
